The values that follow come from US6472415B1, “Androgen receptor suppressors in the therapy and diagnosis of prostate cancer, alopecia and other hyper-androgenic syndromes” (priority 1998, dated 2002).

SMILES strings stand for the structures. Like-named read-outs stand apart in the source and are kept apart here. A value given as a limit tells only on which side of the number the result lay.

The target in one data set is T1, AR (Homo sapiens, UniProt P10275).
T1 sequence (P10275 1-920): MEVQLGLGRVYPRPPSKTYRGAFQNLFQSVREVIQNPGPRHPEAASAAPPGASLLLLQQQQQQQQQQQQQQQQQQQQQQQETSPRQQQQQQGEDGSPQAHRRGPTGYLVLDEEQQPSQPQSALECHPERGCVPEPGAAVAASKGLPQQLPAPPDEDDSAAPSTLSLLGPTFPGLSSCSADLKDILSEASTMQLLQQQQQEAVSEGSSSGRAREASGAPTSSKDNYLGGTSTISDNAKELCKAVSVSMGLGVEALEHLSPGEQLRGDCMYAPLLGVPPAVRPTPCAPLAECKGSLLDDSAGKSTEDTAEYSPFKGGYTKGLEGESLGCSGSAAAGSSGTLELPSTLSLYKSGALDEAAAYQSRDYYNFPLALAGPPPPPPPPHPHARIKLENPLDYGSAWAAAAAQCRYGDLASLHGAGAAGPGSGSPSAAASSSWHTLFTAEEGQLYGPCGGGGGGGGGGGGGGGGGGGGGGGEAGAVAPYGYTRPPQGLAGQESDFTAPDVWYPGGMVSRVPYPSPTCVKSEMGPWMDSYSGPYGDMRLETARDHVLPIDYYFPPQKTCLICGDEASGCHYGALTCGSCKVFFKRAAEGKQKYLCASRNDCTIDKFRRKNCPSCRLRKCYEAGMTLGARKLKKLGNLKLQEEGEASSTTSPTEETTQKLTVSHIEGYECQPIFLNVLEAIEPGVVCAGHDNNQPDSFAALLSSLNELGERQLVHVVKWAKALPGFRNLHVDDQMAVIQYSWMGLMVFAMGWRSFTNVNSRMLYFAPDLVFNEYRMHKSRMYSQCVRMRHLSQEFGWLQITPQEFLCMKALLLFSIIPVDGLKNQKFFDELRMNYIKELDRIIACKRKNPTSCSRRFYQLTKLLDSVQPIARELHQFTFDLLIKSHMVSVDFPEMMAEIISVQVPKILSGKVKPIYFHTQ
The data set can be described thus: Interaction of non-radioactive iodine compounds with AR. As to conditions: compounds containing non-radioactive iodine.

The nature of data set [1]: Systemic toxicity, repeated i.p. injection in mice. As to conditions: i.p. Type of data set: in vivo. As to the method:
Systemic toxicity was orientationally evaluated by i.p. injection every 2nd day in mice. […] For BP-34, the corresponding values were 150 mg/kg bw and 300 mg/kg bw.
The maximum tolerated dose should thus be approximately 300 mg/kg. For BP-34, i.p. injections of 100-300 mg/kg produce no mortalities in mice. […] Therefore, the maximum tolerated dose of BP-34 should be approximately 250 mg/kg.

The conditions of data set [2]: four rabbits, topically twice daily (0.6 mg/kg-day), ten days; limit of detection approximately 10 ng/ml. As for the experimental part: (§1) Serum samples were collected at 2, 5 and 21 hours after the first application, and once every other day, thereafter. Serum samples were processed and analyzed by HPLC.
The conditions of data set [3]: rabbits, topical twice daily, ten days. As for the experimental part:
as §1
The rabbits were also observed daily for signs of cutaneous irritation.

For data set [4] the following is noted: probit analysis.
The conditions of data set [5]: male and female Wistar rats, highest dose tested.
The conditions of data set [6]: Permadi et al. 1993; cited from earlier work.

`CC1(C)C(=O)N(c2ccc(C#N)c(C(F)(F)F)c2)C(=S)N1C/C=C/I` [BP-305, 4-[3′-trans-(2″-propenyl-3″-iodo)-4′,4′-dimethyl-5′-oxo-2′-thioxo-1-imidazolidinyl]-2-trifluoromethylbenzonitrile]: at AR, the “Interaction with AR as compared to controls” value is listed as “shown to interact with AR”.
As for `CC(O)(CNC(=O)C(F)(F)F)C(=O)Nc1ccc([N+](=O)[O-])c(C(F)(F)F)c1` (stereo not shown) [BP-766, 4-nitro-3-trifluoromethyl-N-(2′-hydroxy-2′-methyl-3′-N-(trifluoromethylamido)propionyl) aniline], the Maximum tolerated dose result in data set [1] was “approximately 300 mg/kg”. Besides, the “LD50 (daily dose for seven days that resulted in 50% mortality)” value in [1] (daily for seven days) was 450 mg/kg bw. In data set [2], the “BP-766 and/or BP-34 in serum after topical application” value is “No. BP-766 or BP-34 were found in any of the samples”. Further, the “Signs of cutaneous irritation” value in data set [3] is “No signs of irritation”. Also, the “Effect on effluvium of the frontal hairline” value in the data set on androgenic alopecia (six volunteers (4 male, 2 female), 2% solution, 1 ml twice daily, after 2 weeks) is on record as “arrested the effluvium of the frontal hairline in all six volunteers”. For the same molecule, the “Dermal irritation” value with androgenic alopecia (six volunteers, 2% solution in anhydrous isopropanol, 1 ml twice daily (0.6 mg/kg), 8 weeks) is on record as “no dermal irritation”. Further, in the data set with androgenic alopecia (two volunteers, after 4 months use), the “Regrowth” value is listed as “evident regrowth”. The “% BP-766” value was determined as 100% (60/40 EtOH/H2O, 55° C., 0 hours); 98.1% (60/40 EtOH/H2O, 55° C., 24 hours); 98.2% (60/40 EtOH/H2O, 55° C., 48 hours); 100% (60/40 EtOH/H2O, RT, 0 hours); 99.9% (60/40 EtOH/H2O, RT, 24 hours); 99.69% (60/40 EtOH/H2O, RT, 48 hours). The “% BP-766” value reads like this: (Isopropanol (3-5% water), 55° C., 0 hours) 100%; (Isopropanol (3-5% water), 55° C., 6 hours) 99.6%; (Isopropanol (3-5% water), 55° C., 24 hours) 99.1%; (Isopropanol (3-5% water), 55° C., 144 hours) 98.7%; (anhydrous isopropanol, 50° C., 0 weeks) 100%; (anhydrous isopropanol, 50° C., 1 week) 99.6%. The “% BP-766” value reads like this: (anhydrous isopropanol, 50° C., 2 weeks) 99.4%; (anhydrous isopropanol, 50° C., 3 weeks) 99.3%; (anhydrous isopropanol, 50° C., 4 weeks) 99.2%; (anhydrous isopropanol, 50° C., 5 weeks) 98.9%; (anhydrous isopropanol, 50° C., 6 weeks) 98.8%; (anhydrous isopropanol, 50° C., 7 weeks) 98.3%. The “% BP-766” value (anhydrous isopropanol, 50° C., 8 weeks) is 98.4%. The entries for the “LD50, acute oral” value in data set [4] (female NMRI mice), in data set [4] (male NMRI mice) and in [5] were 2232.0 mg/kg, 2871.7 mg/kg and > 2500 mg/kg body weight, respectively.
As to `O=C(O)C(F)(F)F` [trifluoroacetic acid], the “Toxicity when fed to mice” value in data set [6] is on record as “no toxicity”.
